Source: patent US20230109801A1 (Blue Oak Pharmaceuticals, Inc., priority 2020, published 2023)
Counter-ions that a name gives are not always drawn.

Test system: mice
Assay: SmartCube in vivo neuropharmacological behavioral assay
Settings: for minimal effective dose: Mus musculus, ip, dose having 50% or more total activity in SmartCube, i.p., read-out: MED (minimal effective dose); for AD: antidepressant, percent probability / AG: analgesic, percent probability / AP: antipsychotic, percent probability / AX: anxiolytic, percent probability / CE: cognitive enhancer, percent probability / HA: hallucinogenic, percent probability / MS: mood stabilizer, percent probability / PS, percent probability / SD: sedative hypnotic, percent probability / SE: side effects, percent probability / UN: uncharacterized CNS activity, percent probability / XG: anxiogenic, percent probability: SmartCube, i.p. 15 min before test, at the MED
Experimental: The compounds were evaluated for their CNS related properties (e.g., the treatment, prevention or diagnosis of CNS or CNS-related disorders and/or amelioration of symptoms) using neuropharmacological screening methods described in S. L. Roberts et al., Front. Neurosci. 2011, 5:103 (hereinafter referred to as “Roberts,” the contents of which are incorporated herein by reference in their entirety).
According to Roberts, intact systems are useful in detecting improvement in disease-relevant endpoints, because psychiatric diseases generally result from disorders of cell-cell communication or circuitry. The endpoints are typically behavioral in nature, often requiring human observation and interpretation. In order to test multiple compounds for behavioral effects relevant to neurological and psychiatric diseases and disorders, PsychoGenics, Inc. (Paramus, N.J. “PGI”) developed SmartCube®, an automated system in which behaviors of compound-treated mice are captured by digital video and analyzed with computer algorithms to facilitate testing of multiple compounds for behavioral effects relevant to psychiatric disease. (D. Brunner et al., Drug Discov. Today 2002, 7:S107-S112; Alexandrov et al., Eur. J. Pharmacol. 2015, 753:127-134; the contents of each of which are incorporated herein by reference in their entirety).
The SmartCube® system is described in Example 2.2 of U.S. Pat. No. 9,758,529 and Example 289 of WIPO Publication No. WO2018/023070, the contents of each of which are incorporated herein by reference in their entirety.
According to the present disclosure, compounds identified may be evaluated using the SmartCube® system. The results of such analysis correlate certain patterns or combinations of behaviors to CNS effects along a percent probability scale of 0-100 where zero (O) reflects the limit of quantitation (LOQ).
The compounds of the present disclosure were evaluated for their CNS related properties (e.g., the treatment, prevention or diagnosis of CNS or CNS-related disorders and/or amelioration of symptoms) using neuropharmacological screening methods described in S. L. Roberts et al., Front. Neurosci. 2011, 5:103 (hereinafter referred to as “Roberts,” the contents of which are incorporated herein by reference in their entirety).
The SmartCube® system described herein was utilized to compare the behavioral signature of a test compound to a database of behavioral signatures obtained using a large set of diverse reference compounds (including but not limited to antipsychotics, anxiolytics, antidepressants and bipolar disorder medicine), thereby predicting the neuropharmacological effects of a test compound by similarity to major classes of compounds. It produces an activity signature indicating the probability that the activity of the test compound at the administered dose matches a given class of neuropharmacological agents. The test compound is simultaneously compared against multiple classes of agents; thus, a separate probability is generated for each behavioral effect measured (such as but not limited to anxiolytic activity and analgesic activity).
The compounds of the present disclosure were dissolved in a mixture of Pharmasolve™ (N-methyl-2-pyrrolidone (NMP)) and were injected i.p. 15 min. before the behavioral test. For each compound, injections were administered at different dose levels (e.g., 0.3, 1, 3, 10 and 30 mg per kg (mpk)). A compound's minimal effective dose (MED; see Table 3) is a measure of the compound's potency. The MED was defined as the dose (in mpk) having 50% or more total activity in SmartCube®. For each behavioral effect measured, results at the MED are presented. CNS activities of the compounds were recorded (see Table 2). In Table 1, a key to the percent probabilities (probability×100) for each behavioral effect (“X”) are defined provided, where LOQ is the limit of quantification.

CC(C)C(C)N1C2C=CC1c1ccccc12 (stereo not drawn) [Compound 58, 11-(3-Methylbutan-2-yl)-11-azatricyclo[6.2.1.0^2,7]undeca-2,4,6,9-tetraene hydrochloride]
minimal effective dose: > 30 mg/kg | AD: antidepressant, percent probability: ++ (5% ≤ X < 25%) | AG: analgesic, percent probability: + (LOQ ≤ X < 5%) | AP: antipsychotic, percent probability: + (LOQ ≤ X < 5%) | AX: anxiolytic, percent probability: + (LOQ ≤ X < 5%) | CE: cognitive enhancer, percent probability: + (LOQ ≤ X < 5%) | HA: hallucinogenic, percent probability: + (LOQ ≤ X < 5%) | MS: mood stabilizer, percent probability: + (LOQ ≤ X < 5%) | PS, percent probability: + (LOQ ≤ X < 5%) | SD: sedative hypnotic, percent probability: + (LOQ ≤ X < 5%) | SE: side effects, percent probability: + (LOQ ≤ X < 5%) | UN: uncharacterized CNS activity, percent probability: + (LOQ ≤ X < 5%) | XG: anxiogenic, percent probability: + (LOQ ≤ X < 5%)

CC1=CC2NC1c1ccccc12 (stereo not drawn) [Compound 61, 9-Methyl-11-azatricyclo[6.2.1.0^2,7]undeca-2,4,6,9-tetraene hydrochloride]
minimal effective dose: > 30 mg/kg | AD: antidepressant, percent probability: ++ (5% ≤ X < 25%) | AG: analgesic, percent probability: ++ (5% ≤ X < 25%) | AP: antipsychotic, percent probability: + (LOQ ≤ X < 5%) | AX: anxiolytic, percent probability: + (LOQ ≤ X < 5%) | CE: cognitive enhancer, percent probability: + (LOQ ≤ X < 5%) | HA: hallucinogenic, percent probability: + (LOQ ≤ X < 5%) | MS: mood stabilizer, percent probability: + (LOQ ≤ X < 5%) | PS, percent probability: + (LOQ ≤ X < 5%) | SD: sedative hypnotic, percent probability: + (LOQ ≤ X < 5%) | SE: side effects, percent probability: + (LOQ ≤ X < 5%) | UN: uncharacterized CNS activity, percent probability: + (LOQ ≤ X < 5%) | XG: anxiogenic, percent probability: + (LOQ ≤ X < 5%)

CCC(C)N1C2C=CC1c1ccccc12 (stereo not drawn) [Compound 55, 11-(Butan-2-yl)-11-azatricyclo[6.2.1.0^2,7]undeca-2,4,6,9-tetraene hydrochloride]
minimal effective dose: 10 to 30 mg/kg | AD: antidepressant, percent probability: +++ (25% ≤ X < 50%) | AG: analgesic, percent probability: + (LOQ ≤ X < 5%) | AP: antipsychotic, percent probability: + (LOQ ≤ X < 5%) | AX: anxiolytic, percent probability: ++ (5% ≤ X < 25%) | CE: cognitive enhancer, percent probability: + (LOQ ≤ X < 5%) | HA: hallucinogenic, percent probability: + (LOQ ≤ X < 5%) | MS: mood stabilizer, percent probability: + (LOQ ≤ X < 5%) | PS, percent probability: ++ (5% ≤ X < 25%) | SD: sedative hypnotic, percent probability: + (LOQ ≤ X < 5%) | SE: side effects, percent probability: + (LOQ ≤ X < 5%) | UN: uncharacterized CNS activity, percent probability: +++ (25% ≤ X < 50%) | XG: anxiogenic, percent probability: + (LOQ ≤ X < 5%)

COCC(C)N1C2C=CC1c1ccccc12 (stereo not drawn) [Compound 57, 11-(1-Methoxypropan-2-yl)-11-azatricyclo[6.2.1.0^2,7]undeca-2,4,6,9-tetraene hydrochloride]
minimal effective dose: > 30 mg/kg | AD: antidepressant, percent probability: ++ (5% ≤ X < 25%) | AG: analgesic, percent probability: + (LOQ ≤ X < 5%) | AP: antipsychotic, percent probability: + (LOQ ≤ X < 5%) | AX: anxiolytic, percent probability: + (LOQ ≤ X < 5%) | CE: cognitive enhancer, percent probability: + (LOQ ≤ X < 5%) | HA: hallucinogenic, percent probability: + (LOQ ≤ X < 5%) | MS: mood stabilizer, percent probability: + (LOQ ≤ X < 5%) | PS, percent probability: + (LOQ ≤ X < 5%) | SD: sedative hypnotic, percent probability: + (LOQ ≤ X < 5%) | SE: side effects, percent probability: + (LOQ ≤ X < 5%) | UN: uncharacterized CNS activity, percent probability: + (LOQ ≤ X < 5%) | XG: anxiogenic, percent probability: + (LOQ ≤ X < 5%)

c1ccc2c(c1)C1CCC2N1C1CC1 [Compound 45, 11-Cyclopropyl-11-azatricyclo[6.2.1.0^2,7]undeca-2,4,6-triene hydrochloride]
minimal effective dose: 10 to 30 mg/kg | AD: antidepressant, percent probability: ++ (5% ≤ X < 25%) | AG: analgesic, percent probability: ++ (5% ≤ X < 25%) | AP: antipsychotic, percent probability: ++ (5% ≤ X < 25%) | AX: anxiolytic, percent probability: ++ (5% ≤ X < 25%) | CE: cognitive enhancer, percent probability: ++ (5% ≤ X < 25%) | HA: hallucinogenic, percent probability: + (LOQ ≤ X < 5%) | MS: mood stabilizer, percent probability: + (LOQ ≤ X < 5%) | PS, percent probability: + (LOQ ≤ X < 5%) | SD: sedative hypnotic, percent probability: + (LOQ ≤ X < 5%) | SE: side effects, percent probability: + (LOQ ≤ X < 5%) | UN: uncharacterized CNS activity, percent probability: ++ (5% ≤ X < 25%) | XG: anxiogenic, percent probability: + (LOQ ≤ X < 5%)

COCC(C)N1C2CCC1c1ccccc12 (stereo not drawn) [Compound 46, 11-(1-Methoxypropan-2-yl)-11-azatricyclo[6.2.1.0^2,7]undeca-2,4,6-triene hydrochloride]
minimal effective dose: > 30 mg/kg | AD: antidepressant, percent probability: + (LOQ ≤ X < 5%) | AG: analgesic, percent probability: ++ (5% ≤ X < 25%) | AP: antipsychotic, percent probability: + (LOQ ≤ X < 5%) | AX: anxiolytic, percent probability: + (LOQ ≤ X < 5%) | CE: cognitive enhancer, percent probability: + (LOQ ≤ X < 5%) | HA: hallucinogenic, percent probability: + (LOQ ≤ X < 5%) | MS: mood stabilizer, percent probability: + (LOQ ≤ X < 5%) | PS, percent probability: + (LOQ ≤ X < 5%) | SD: sedative hypnotic, percent probability: + (LOQ ≤ X < 5%) | SE: side effects, percent probability: + (LOQ ≤ X < 5%) | UN: uncharacterized CNS activity, percent probability: + (LOQ ≤ X < 5%) | XG: anxiogenic, percent probability: + (LOQ ≤ X < 5%)

Cc1ccc2c(c1)C1CCC2N1C(C)C (stereo not drawn) [Compound 21, 4-Methyl-11-(propan-2-yl)-11-azatricyclo[6.2.1.0^2,7]undeca-2,4,6-triene hydrochloride]
minimal effective dose: 10 to 30 mg/kg | AD: antidepressant, percent probability: ++ (5% ≤ X < 25%) | AG: analgesic, percent probability: + (LOQ ≤ X < 5%) | AP: antipsychotic, percent probability: + (LOQ ≤ X < 5%) | AX: anxiolytic, percent probability: ++ (5% ≤ X < 25%) | CE: cognitive enhancer, percent probability: + (LOQ ≤ X < 5%) | HA: hallucinogenic, percent probability: + (LOQ ≤ X < 5%) | MS: mood stabilizer, percent probability: + (LOQ ≤ X < 5%) | PS, percent probability: + (LOQ ≤ X < 5%) | SD: sedative hypnotic, percent probability: + (LOQ ≤ X < 5%) | SE: side effects, percent probability: ++++ (50% ≤ X <1 00%) | UN: uncharacterized CNS activity, percent probability: ++ (5% ≤ X < 25%) | XG: anxiogenic, percent probability: + (LOQ ≤ X < 5%)

CC1CC2NC1c1ccccc12 (stereo not drawn) [Compound 50, 9-Methyl-11-azatricyclo[6.2.1.0^2,7]undeca-2,4,6-triene hydrochloride]
minimal effective dose: 10 to 30 mg/kg | AD: antidepressant, percent probability: ++ (5% ≤ X < 25%) | AG: analgesic, percent probability: ++ (5% ≤ X < 25%) | AP: antipsychotic, percent probability: + (LOQ ≤ X < 5%) | AX: anxiolytic, percent probability: + (LOQ ≤ X < 5%) | CE: cognitive enhancer, percent probability: ++ (5% ≤ X < 25%) | HA: hallucinogenic, percent probability: + (LOQ ≤ X < 5%) | MS: mood stabilizer, percent probability: + (LOQ ≤ X < 5%) | PS, percent probability: + (LOQ ≤ X < 5%) | SD: sedative hypnotic, percent probability: + (LOQ ≤ X < 5%) | SE: side effects, percent probability: + (LOQ ≤ X < 5%) | UN: uncharacterized CNS activity, percent probability: +++ (25% ≤ X < 50%) | XG: anxiogenic, percent probability: + (LOQ ≤ X < 5%)

CC1C2NC(c3ccccc32)C1C (stereo not drawn) [Compound 48, 9,10-Dimethyl-11-azatricyclo[6.2.1.0^2,7]undeca-2,4,6-triene hydrochloride]
minimal effective dose: 10 to 30 mg/kg | AD: antidepressant, percent probability: ++ (5% ≤ X < 25%) | AG: analgesic, percent probability: + (LOQ ≤ X < 5%) | AP: antipsychotic, percent probability: + (LOQ ≤ X < 5%) | AX: anxiolytic, percent probability: ++ (5% ≤ X < 25%) | CE: cognitive enhancer, percent probability: ++++ (50% ≤ X <1 00%) | HA: hallucinogenic, percent probability: ++ (5% ≤ X < 25%) | MS: mood stabilizer, percent probability: + (LOQ ≤ X < 5%) | PS, percent probability: ++ (5% ≤ X < 25%) | SD: sedative hypnotic, percent probability: + (LOQ ≤ X < 5%) | SE: side effects, percent probability: + (LOQ ≤ X < 5%) | UN: uncharacterized CNS activity, percent probability: + (LOQ ≤ X < 5%) | XG: anxiogenic, percent probability: + (LOQ ≤ X < 5%)
